Assay results reported in the NIST ThermoML archive (doi:10.1016/j.jct.2015.09.022).
Numbers after ± are expanded uncertainties.

Experiments:
[1] = 100.7 kPa, Liquid; for viscosity: Falling or rolling sphere viscometry; for speed of sound: Frequency=3 MHz, Sing-around technique in a fixed-path interferometer; for mass density: Vibrating tube method
[2] = xn = mol fraction of the nth substance listed; conditions: 100.7 kPa, Liquid; for viscosity: Falling or rolling sphere viscometry; for speed of sound: Frequency=3 MHz, Sing-around technique in a fixed-path interferometer; for mass density: Vibrating tube method

CCCC[n+]1ccn(C)c1.O=S(=O)([N-]S(=O)(=O)C(F)(F)F)C(F)(F)F
[1]
Conditions | mass density [kg/m3] | speed of sound [m/s] | viscosity [mPa·s]
298.15 K | 1436.82 ± 0.62 | 1227.8 ± 1.5 | 50.04 ± 5
303.15 K | 1431.98 ± 0.61 | 1217.5 ± 1.5 | 40.72 ± 4.1
308.15 K | 1427.16 ± 0.61 | 1205.2 ± 1.5 | 33.73 ± 3.4
313.15 K | 1422.37 ± 0.6 | 1194.4 ± 1.5 | 28.28 ± 2.8
318.15 K | 1417.6 ± 0.6 | 1184.5 ± 1.5 | 24.01 ± 2.4
323.15 K | 1412.86 ± 0.59 | 1171.3 ± 1.5 | 20.32 ± 2

CCCC[n+]1ccn(C)c1.O=S(=O)([N-]S(=O)(=O)C(F)(F)F)C(F)(F)F + CCCC=O
[2], x1 = 1
Conditions | mass density [kg/m3] | speed of sound [m/s] | viscosity [mPa·s]
298.15 K | 1436.82 ± 0.62 | 1227.8 ± 1.5 | 50.04 ± 3
303.15 K | 1431.98 ± 0.61 | 1217.5 ± 1.5 | 40.72 ± 2.5
308.15 K | 1427.16 ± 0.61 | 1205.2 ± 1.5 | 33.73 ± 2.1
313.15 K | 1422.37 ± 0.6 | 1194.4 ± 1.5 | 28.28 ± 1.7
318.15 K | 1417.6 ± 0.6 | 1184.5 ± 1.5 | 24.01 ± 1.5
323.15 K | 1412.86 ± 0.59 | 1171.3 ± 1.5 | 20.32 ± 1.2

CCCC[n+]1ccn(C)c1.O=S(=O)([N-]S(=O)(=O)C(F)(F)F)C(F)(F)F + CCCCN
[2], x1 = 1
Conditions | mass density [kg/m3] | speed of sound [m/s] | viscosity [mPa·s]
298.15 K | 1436.82 ± 0.62 | 1227.8 ± 1.5 | 50.04 ± 3
303.15 K | 1431.98 ± 0.61 | 1217.5 ± 1.5 | 40.72 ± 2.5
308.15 K | 1427.16 ± 0.61 | 1205.2 ± 1.5 | 33.73 ± 2.1
313.15 K | 1422.37 ± 0.6 | 1194.4 ± 1.5 | 28.28 ± 1.7
318.15 K | 1417.6 ± 0.6 | 1184.5 ± 1.5 | 24.01 ± 1.5
323.15 K | 1412.86 ± 0.59 | 1171.3 ± 1.5 | 20.32 ± 1.2

CCCCN [1-butanamine]
[1]
Conditions | mass density [kg/m3] | speed of sound [m/s] | viscosity [mPa·s]
298.15 K | 733.33 ± 0.2 | 1246.5 ± 1.3 | 0.47 ± 0.03
303.15 K | 728.5 ± 0.2 | 1223.9 ± 1.3 | 0.44 ± 0.03
308.15 K | 723.67 ± 0.2 | 1201.3 ± 1.3 | 0.41 ± 0.03
313.15 K | 718.66 ± 0.2 | 1178.7 ± 1.3 | 0.39 ± 0.02
318.15 K | 714.1 ± 0.2 | 1156.2 ± 1.3 | 0.37 ± 0.02
323.15 K | 709.21 ± 0.2 | 1133.5 ± 1.3 | 0.35 ± 0.02

CCCC=O [butanal]
[1]
Conditions | mass density [kg/m3] | speed of sound [m/s] | viscosity [mPa·s]
298.15 K | 796.99 ± 0.21 | 1193.8 ± 1.4 | 0.43 ± 0.03
303.15 K | 791.8 ± 0.21 | 1172.7 ± 1.4 | 0.4 ± 0.02
308.15 K | 786.41 ± 0.21 | 1151.6 ± 1.4 | 0.39 ± 0.02
313.15 K | 781.37 ± 0.21 | 1130.6 ± 1.4 | 0.36 ± 0.02
318.15 K | 776.39 ± 0.21 | 1109.6 ± 1.4 | 0.35 ± 0.02
323.15 K | 771.3 ± 0.22 | 1088.8 ± 1.4 | 0.32 ± 0.02

CCCCOC(C)=O [butyl ethanoate]
[1]
Conditions | viscosity [mPa·s]
298.15 K | 0.67 ± 0.07
303.15 K | 0.64 ± 0.06
308.15 K | 0.58 ± 0.06
313.15 K | 0.57 ± 0.06
318.15 K | 0.53 ± 0.05
323.15 K | 0.5 ± 0.05

CCCCOC(C)=O [butyl ethanoate] + CCCC[n+]1ccn(C)c1.O=S(=O)([N-]S(=O)(=O)C(F)(F)F)C(F)(F)F
[2], x2 = 0
Conditions | mass density [kg/m3] | speed of sound [m/s] | viscosity [mPa·s]
298.15 K | 876 ± 0.2 | 1190.5 ± 1.4 | 0.67 ± 0.07
303.15 K | 870.86 ± 0.2 | 1169.8 ± 1.4 | 0.64 ± 0.06
308.15 K | 865.69 ± 0.2 | 1149.2 ± 1.4 | 0.58 ± 0.06
313.15 K | 860.49 ± 0.2 | 1128.8 ± 1.4 | 0.57 ± 0.06
318.15 K | 855.28 ± 0.2 | 1108.5 ± 1.4 | 0.53 ± 0.05
323.15 K | 850.03 ± 0.21 | 1088.3 ± 1.4 | 0.5 ± 0.05
